ChEMBL document CHEMBL1149203, “Design, synthesis, and characterization of an ATP-peptide conjugate inhibitor of protein kinase A” (Bioorg Med Chem Lett, 2004)

Biological target: cAMP-dependent protein kinase (PKA) (Homo sapiens, UniProt P22694+P17612+P22612)
Assay: Inhibition of protein kinase A expressed in Escherichia coli

With `CC(=O)N[C@@H](CC(C)C)C(=O)N[C@@H](CCCN=C(N)N)C(=O)N[C@@H](CCCN=C(N)N)C(=O)N[C@@H](C)C(=O)NC(CNC(=O)CSP(=O)(O)OP(=O)(O)OP(=O)(O)OC[C@H]1O[C@@H](n2cnc3c(N)ncnc32)[C@H](O)[C@@H]1O)C(=O)N[C@@H](CC(C)C)C(=O)NCC(=O)O` (stereo partly specified) the Ki was 3.8 µM.
